Assay results taken from patent publication US20240287070A1, “FUSED HETEROCYCLIC DERIVATIVES” (Janssen Sciences Ireland Unlimited Company, priority 2021, published 2024).

Experiments:
[1] = Cytotoxicity, ATPlite Luminescence Assay; type: cell-based, human; settings: human, HepG2 or HepG2.117 cells, 3-days incubation unless marked with *
Protocol: Cytotoxicity of the compounds was tested using HepG2 or HepG2.117 cells, incubated for 3 or 4 days in the presence of compounds. The viability of the cells was assessed using the PERKIN ELMER ATPlite Luminescence Assay System.”

[2] = tested on: HBV (HepG2.117 cell line, inducibly HBV producing); test: Anti-HBV activity, intracellular HBV DNA by real-time PCR in HepG2.117 cell line; type: cell-based, hepatitis B virus; settings: Hepatitis B virus, HepG2.117, 72 h, HepG2.117 cells, 3 days of treatment
Protocol: The anti HBV activity was measured using the HepG2.117 cell line, a stable, inducibly HBV producing cell line, which replicates HBV in the absence of doxycycline (Tet-off system). The HepG2 cell line is available from ATCCR under number HB-8065. Transfection of the HepG2 cell line can be as described in Sun and Nassal 2006 Journal of Hepatology 45 (2006) 636-645 “Stable HepG2- and Huh7-based human hepatoma cell lines for efficient regulated expression of infectious hepatitis B virus”.
For the antiviral assay, HBV replication was induced, followed by a treatment with serially diluted compound in 96-well plates. After 3 days of treatment, the antiviral activity was determined by quantification of intracellular HBV DNA using real-time PCR and an HBV specific primer set and probe.

[3] = Human liver microsome stability; type: in vitro ADME; settings: human, pooled human liver microsomes, pH 7.4, pooled human liver microsomes 0.5 mg/mL, 1 μM compound, NADPH 1 mM, 37° C., 0-60 min; read-out: HLM Metabolism t1/2
Protocol: Human Liver Microsome Stability t½ (Min) of Compounds of Formula (I) […] All incubations are performed singularly for each compound. NADPH was added to initiate the reaction with the final concentration of 1 mM and the final incubation volume of 400 μL. At 6 time points (0, 5, 10, 20, 40 and 60 min) reactions were stopped by the removal of 50 μL of the incubation mixture into plates containing acetonitrile at a of 1:3 (v:v). The plates were centrifuged at 3000 rpm for 10 min at 4° C. to precipitate the protein. Following protein precipitation, the sample supernatants were combined in cassettes of up to 8 compounds. The internal standard was added (1:1 supernatant to internal standard solution) and samples were analyzed using standard LC-MS conditions. From a plot of ln peak area ratio (compound peak area/internal standard peak area) against time, the gradient of the line is determined. Subsequently, half-life is calculated using the equations below: Elimination rate constant (k)=(−gradient) […]

Compound	CC50 at 3 days [1] [µM]	EC50 [2] [µM]	half-life at 1 μM [3] [h]
CC(c1ccccn1)N1CCn2nc3c(c2C1=O)CN(C(=O)c1ccc(Cl)c(Cl)c1)[C@H](C)C3 (mixture of isomers) [Ref 3, reference compound]	> 50	–	–
C[C@@H]1Cc2nn3c(c2CN1C(=O)c1ccc(Cl)c(C#N)c1)C(=O)N([C@H](C)c1ccc(OC(F)F)cc1)C[C@@H]3C (relative stereo) [Compound 1A, 2-Chloro-5-((3R,7S*)-9-((R*)-1-(4-(difluoromethoxy)phenyl)ethyl)-3,7-dimethyl-10-oxo-1,2,3,4,7,8,9,10-octahydropyrido[4′,3′:3,4]pyrazolo[1,5-a]pyrazine-2-carbonyl)benzonitrile]	> 50	0.21	0.235
C[C@@H]1Cc2nn3c(c2CN1C(=O)c1ccc(Cl)c(C#N)c1)C(=O)N([C@@H](C)c1ccc(OC(F)F)cc1)C[C@@H]3C (relative stereo) [Compound 1B, 2-Chloro-5-((3R,7S*)-9-((S*)-1-(4-(difluoromethoxy)phenyl)ethyl)-3,7-dimethyl-10-oxo-1,2,3,4,7,8,9,10-octahydropyrido[4′,3′:3,4]pyrazolo[1,5-a]pyrazine-2-carbonyl)benzonitrile]	> 50	1.49	0.612
C[C@@H]1Cc2nn3c(c2CN1C(=O)c1ccc(Cl)c(C#N)c1)C(=O)N([C@H](C)c1ccc(OC(F)F)cc1)C[C@H]3C (relative stereo) [Compound 1C, 2-Chloro-5-((3R,7R*)-9-((R*)-1-(4-(difluoromethoxy)phenyl)ethyl)-3,7-dimethyl-10-oxo-1,2,3,4,7,8,9,10-octahydropyrido[4′,3′:3,4]pyrazolo[1,5-a]pyrazine-2-carbonyl)benzonitrile]	> 50	0.044	> 3
C[C@@H]1Cc2nn3c(c2CN1C(=O)c1ccc(Cl)c(Cl)c1)C(=O)N([C@H](C)c1ccc([S@](C)(=N)=O)cc1)C[C@H]3C (relative stereo) [Compound 18A, (3R,7R)-2-(3,4-dichlorobenzoyl)-3,7-dimethyl-9-((R*)-1-(4-((R*)—S-methylsulfonimidoyl)phenyl)ethyl)-1,2,3,4,8,9-hexahydropyrido[4′,3′:3,4]pyrazolo[1,5-a]pyrazin-10(7H)-one]	> 50	0.084	> 3
C[C@@H]1Cc2nn3c(c2CN1C(=O)c1ccc(Cl)c(Cl)c1)C(=O)N([C@H](C)c1ccc([S@@](C)(=N)=O)cc1)C[C@H]3C (relative stereo) [Compound 18B, (3R,7R)-2-(3,4-dichlorobenzoyl)-3,7-dimethyl-9-((R*)-1-(4-((S*)—S-methylsulfonimidoyl)phenyl)ethyl)-1,2,3,4,8,9-hexahydropyrido[4′,3′:3,4]pyrazolo[1,5-a]pyrazin-10(7H)-one]	> 50	0.031	> 3
C[C@@H]1Cc2nn3c(c2CN1C(=O)c1ccc(Cl)c(Cl)c1)C(=O)N([C@@H](C)c1ccc([S@](C)(=N)=O)cc1)C[C@H]3C (relative stereo) [Compound 18C, (3R,7R)-2-(3,4-dichlorobenzoyl)-3,7-dimethyl-9-((S*)-1-(4-((R*)—S-methylsulfonimidoyl)phenyl)ethyl)-1,2,3,4,8,9-hexahydropyrido[4′,3′:3,4]pyrazolo[1,5-a]pyrazin-10(7H)-one]	> 50	0.03	> 3
C[C@@H]1Cc2nn3c(c2CN1C(=O)c1ccc(Cl)c(Cl)c1)C(=O)N([C@@H](C)c1ccc([S@@](C)(=N)=O)cc1)C[C@H]3C (relative stereo) [Compound 18D, (3R,7R)-2-(3,4-dichlorobenzoyl)-3,7-dimethyl-9-((S*)-1-(4-((S*)—S-methylsulfonimidoyl)phenyl)ethyl)-1,2,3,4,8,9-hexahydropyrido[4′,3′:3,4]pyrazolo[1,5-a]pyrazin-10(7H)-one]	> 50	0.024	> 3
C[C@@H]1Cc2nn3c(c2CN1C(=O)c1ccc(Cl)c(C(F)(F)F)c1)C(=O)N([C@H](C)c1ccc([S@](C)(=N)=O)cc1)C[C@H]3C (relative stereo) [Compound 19A, (3R,7R)-2-(4-chloro-3-(trifluoromethyl)benzoyl)-3,7-dimethyl-9-((R*)-1-(4-((R*)—S-methylsulfonimidoyl)phenyl)ethyl)-1,2,3,4,8,9-hexahydropyrido[4′,3′:3,4]pyrazolo[1,5-a]pyrazin-10(7H)-one]	> 50	0.026	> 3
C[C@@H]1Cc2nn3c(c2CN1C(=O)c1ccc(Cl)c(C(F)(F)F)c1)C(=O)N([C@H](C)c1ccc([S@@](C)(=N)=O)cc1)C[C@H]3C (relative stereo) [Compound 19B, (3R,7R)-2-(4-chloro-3-(trifluoromethyl)benzoyl)-3,7-dimethyl-9-((R*)-1-(4-((S*)—S-methylsulfonimidoyl)phenyl)ethyl)-1,2,3,4,8,9-hexahydropyrido[4′,3′:3,4]pyrazolo[1,5-a]pyrazin-10(7H)-one]	> 50	0.015	> 3
C[C@@H]1Cc2nn3c(c2CN1C(=O)c1ccc(Cl)c(C(F)(F)F)c1)C(=O)N([C@@H](C)c1ccc([S@](C)(=N)=O)cc1)C[C@H]3C (relative stereo) [Compound 19C, (3R,7R)-2-(4-chloro-3-(trifluoromethyl)benzoyl)-3,7-dimethyl-9-((S*)-1-(4-((R*)—S-methylsulfonimidoyl)phenyl)ethyl)-1,2,3,4,8,9-hexahydropyrido[4′,3′:3,4]pyrazolo[1,5-a]pyrazin-10(7H)-one]	> 50	0.011	> 3
C[C@@H]1Cc2nn3c(c2CN1C(=O)c1ccc(Cl)c(C(F)(F)F)c1)C(=O)N([C@@H](C)c1ccc([S@@](C)(=N)=O)cc1)C[C@H]3C (relative stereo) [Compound 19D, (3R,7R)-2-(4-chloro-3-(trifluoromethyl)benzoyl)-3,7-dimethyl-9-((S*)-1-(4-((S*)—S-methylsulfonimidoyl)phenyl)ethyl)-1,2,3,4,8,9-hexahydropyrido[4′,3′:3,4]pyrazolo[1,5-a]pyrazin-10(7H)-one]	> 50	0.011	> 3
Cc1ncnn1-c1ccc([C@H](C)N2C[C@@H](C)n3nc4c(c3C2=O)CN(C(=O)c2ccc(Cl)c(Cl)c2)[C@H](C)C4)cn1 (relative stereo) [Compound 25B, (3R,7R)-2-(3,4-dichlorobenzoyl)-3,7-dimethyl-9-((S*)-1-(6-(5-methyl-11H-1,2,4-triazol-1-yl)pyridin-3-yl)ethyl)-1,2,3,4,8,9-hexahydropyrido[4′,3′:3,4]pyrazolo[1,5-a]pyrazin-10(7H)-one]	> 50	0.017	1.49
CN=[S@](C)(=O)c1ccc([C@@H](C)N2C[C@@H](C)n3nc4c(c3C2=O)CN(C(=O)c2ccc(Cl)c(Cl)c2)[C@H](C)C4)cn1 (relative stereo) [Compound 29A, (3R,7R)-2-(3,4-dichlorobenzoyl)-9-((R*)-1-(6-((R*)—N,S-dimethylsulfonimidoyl)pyridin-3-yl)ethyl)-3,7-dimethyl-1,2,3,4,8,9-hexahydropyrido[4′,3′:3,4]pyrazolo[1,5-a]pyrazin-10(7H)-one]	> 50	0.74	1.7
CN=[S@@](C)(=O)c1ccc([C@@H](C)N2C[C@@H](C)n3nc4c(c3C2=O)CN(C(=O)c2ccc(Cl)c(Cl)c2)[C@H](C)C4)cn1 (relative stereo) [Compound 29B, (3R,7R)-2-(3,4-dichlorobenzoyl)-9-((R*)-1-(6-((S*)—N,S-dimethylsulfonimidoyl)pyridin-3-yl)ethyl)-3,7-dimethyl-1,2,3,4,8,9-hexahydropyrido[4′,3′:3,4]pyrazolo[1,5-a]pyrazin-10(7H)-one]	> 50	0.81	> 3
C[C@@H]1Cc2nn3c(c2CN1C(=O)c1ccc(Cl)c(Cl)c1)C(=O)N([C@H](C)c1ccc(C#N)cc1)CC3 [Ref 4, reference compound]	> 50	–	–
C[C@@H]1Cc2nn3c(c2CN1C(=O)c1ccc(Cl)c(Cl)c1)C(=O)N([C@@H](C)c1ccc(C#N)cc1)CC3 [Ref 5, reference compound]	> 50	–	–
